Source: ChEMBL document CHEMBL4627253, “Relationship among structure, cytotoxicity, and Michael acceptor reactivity of quinocidin” (Bioorg Med Chem, 2020)
pIC50: −log10 of the molar value.

system: HEK293; experiment: Cytotoxicity against HEK293 cells assessed as cell growth incubated for 48 hrs by MTT assay; type: cell-based; conditions: Homo sapiens, HEK293, 48 h

SMILES | pIC50
CCCC/C=C(\C)c1c(C)cc(C)c2[n+]1CC(C)C=C2 (stereo not drawn) | 5.77
CNC(=O)CCCCCc1c(C)cc(C)c2[n+]1CC(C)C=C2 (stereo not drawn) | < 4.52

system: HeLa S3; experiment: Cytotoxicity against human HeLaS3 cells assessed as cell growth incubated for 48 hrs by MTT assay; type: functional, cell-based; conditions: HeLa S3, 48 h

SMILES | pIC50
CCCC/C=C/c1c(C)cc(C)c2[n+]1CC(C)CC2 (stereo not drawn) | 6.24
CC/C=C/c1c(C)cc(C)c2[n+]1CC(C)C=C2 (stereo not drawn) | 5.70
CCCCCCc1c(C)cc(C)c2[n+]1CC(C)C=C2 (stereo not drawn) | 6.33
CCCCCCCCCCCCCC/C=C/c1c(C)cc(C)c2[n+]1CC(C)C=C2 (stereo not drawn) | 7.24
CCCC/C=C(\C)c1nc(/C=C\C(C)C)c(C)cc1C | < 4.52
CCCCCCCC/C=C/c1c(C)cc(C)c2[n+]1CC(C)C=C2 (stereo not drawn) | 7.29
CCCCCC/C=C/c1c(C)cc(C)c2[n+]1CC(C)C=C2 (stereo not drawn) | 6.77
CCCC/C=C(\C)c1c(C)cc(C)c2[n+]1CCC=C2 | 6.17
CCCC/C=C(\C)c1c(C)cc(C)c2[n+]1CC(C)C=C2 (stereo not drawn) | 6.19
CCCC/C=C(\C)c1c(C)cc(C)c2[n+]1CC(C)CC2 (stereo not drawn) | 6.44
CCCCCCCCCCCC/C=C/c1c(C)cc(C)c2[n+]1CC(C)C=C2 (stereo not drawn) | 7.42
CCCC/C=C/c1c(C)cc(C)c2[n+]1CC(C)C=C2 (stereo not drawn) | 6.43
CCCCCCCCCC/C=C/c1c(C)cc(C)c2[n+]1CC(C)C=C2 (stereo not drawn) | 7.28
CNC(=O)CCCCCc1c(C)cc(C)c2[n+]1CC(C)C=C2 (stereo not drawn) | < 4.52
CCCC/C=C(\C)c1c(C)cc(C)c[n+]1CCCC | 6.14

system: HeLa S3; experiment: Cytotoxicity against human HeLaS3 cells assessed as reduction in cell viability; type: functional, cell-based; conditions: not given

SMILES | pIC50
C1=Cc2cccc[n+]2CC1 | < 4.52
